Data taken from a melting point compilation (Tetko et al.; mined from patent text by program, amines drawn as free bases though some values may be those of a salt).

melting point [°C]	SMILES
133 to 135	CC(C)(C)OC(=O)c1nc2ccc(NCCCN3CCC(OC(c4ccccc4)c4ccccc4)CC3)nn2n1
174 to 175	CN(C(=O)Nc1ccccc1C=Cc1cc(C(C)(C)C)c(O)c(C(C)(C)C)c1)C1CCN(Cc2ccc(F)cc2)CC1
142	Cc1cn(C(C)(C)C(=O)N(C)C)nc1-c1ccc(Cl)c(Cl)c1
230 to 235	O=C(C=Cc1ccc(Cl)cc1)NN1CC(=O)NC1=O
133 to 138	O=C(Cc1ccccc1)Nc1ccc(-n2nc(C3CC3)cc2C2CC2)cc1
210 to 213	CC(C)(C)c1cc(CCN2CCN(CCc3ccc(CC(=O)O)cc3)CC2)cc(C(C)(C)C)c1O
178 to 179	COc1cc(OC)c2cc(C(=O)c3ccccc3)c(=O)oc2c1
262	Cc1c(N=C2NCCN2)cc(Br)cc1NS(C)(=O)=O
177	CC(C)(C)c1cccc(S(=O)(=O)n2c(Cc3ccc(C(=O)O)cc3F)cc3cc(C(F)(F)F)ccc32)c1
176 to 177	COc1ccc(CNC(=O)c2cnc(SC)nc2NC(C)C)cc1
95 to 97	CCC1(CCI)C(=O)N2CC=CC(C(=O)OC)N2C1=O (stereo not given)
158 to 160	COc1ccc(/C(=C\C=C\C2CC2)C(=O)O)cc1
58 to 60	CCc1cn(-c2nccs2)c2c1C(=O)CC(C)(C)C2
132 to 134	Cc1sc(C(=O)O)c(SC(C)C)c1Br
141 to 143	CC(=O)c1cc2nc(SCc3nccc4c3OCO4)[nH]c2cc1C
151 to 152	Cc1cc(Cl)c2c(c1)C(=O)N(C(C)(C)C)CC(=O)N2
138 to 140	CCc1ccc(C=O)nc1
66 to 67	O=C(c1cccs1)N(CCCSc1ccncc1)c1ccccc1
163	O=c1nc(-c2ccnc(-c3ccccc3)c2)sc2ccccc12

melting point [°C]	SMILES
193	CC(C)Nc1c(-c2c(F)cc(F)cc2F)c(Cl)nc2ncccc12
162 to 164	CCONC(=O)c1cccc(NC(C)=C2C(=O)OC(=O)C(C(C)=O)=C2O)c1
80 to 82	COc1ccc(NC(=O)OC(C)(C)C)c(C)c1
172 to 179	CNc1ncc2c(n1)-c1ccc(Cl)cc1C(c1ccccc1F)=NC2
295 to 298	COc1ccc(-c2cc(=O)c3c(O)cc(O)c(-c4cc(-c5cc(=O)c6c(O)cc(OC)cc6o5)ccc4OC)c3o2)cc1
194 to 197	Cc1noc(-c2ccc(Cl)cc2)c1-c1ccc(S(N)(=O)=O)cc1
152 to 154	CSC(=NCc1cccnc1)NC#N
62 to 64	Cc1ccc(C=Cc2csc3ccccc23)s1
215 to 217	CONC(=O)c1nc(-c2ccc(Cl)c(OC)c2F)cc(N)c1Cl
118 to 119	CC(=O)C1(COC(N)=O)CC2C=CC1C2 (stereo not given)
120 to 123	CO/N=C1\CCCC[C@@H]1NC(=O)c1cnc(O[C@@H](C)C(F)(F)F)c(-c2ccc(Cl)cc2)n1
> 220	N#Cc1ccc(F)c(C(c2cc(N)ncc2Cl)S(=O)(=O)c2ccc(Cl)cc2)c1 (stereo not given)
139	CCOC(=O)c1cccn2c(C=O)c(-c3ccccc3)nc12
226 to 228	NC(=O)c1ccc(C(=O)N2Cc3cccn3Cc3ccccc32)cc1
97 to 99	ClCc1nc(NCc2ccccn2)c2c(-c3ccccc3)csc2n1
136 to 142	CC(C)OC(=O)Cn1c(=O)n(C)c(=O)n(-c2cc(-n3c(=O)n4n(c3=S)CCCC4)c(F)cc2Cl)c1=O
134 to 136	O=C(O)C=C1COc2ccccc2C1=O
104 to 105	CC(C)(CO)Cc1ccc(CC(C)(C)CO)cc1

SMILES	melting point [°C]
Cc1ccc2nc(NC3=NCCN3)[nH]c2c1C	199 to 204
CCC(=O)N(CC)c1cccc(-c2ccnc3c(C(=O)c4ccccc4)cnn23)c1	194 to 195
CCCCc1nnc2n1-c1sc3c(c1C(c1ccccc1Cl)=NC2)CCNC3	224
